Results taken from the supplement of paper PMC10307832.

Columns and labels:
Assay in all cases: relative viability (nuclei count vs DMSO), 5 days (fraction); higher = more cells survive
[1] = compound: CN[C@@H]1C[C@H]2O[C@@](C)([C@@H]1OC)n1c3ccccc3c3c4c(c5c6ccccc6n2c5c31)C(=O)NC4 [Staurosporine] + Cc1nc(Nc2ncc(C(=O)Nc3c(C)cccc3Cl)s2)cc(N2CCN(CCO)CC2)n1 [Dasatinib] (partner 0.075 µM)
How it was run: (§1)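 Lung cancer cell lines were seeded in 1536-well plates and dosed by pin tool the next day, with either a single drug or a fixed anchor-drug dose combined with five library-drug doses (not always all listed) spaced in √10 steps. Five days later, one step fixed the cells and stained their nuclei (final 0.05% Triton X-100, 1% formaldehyde, 1 ug/ml Hoechst), and nuclei were counted on 4× images. Relative viability is the nuclei count in treated wells divided by the count in vehicle wells, and each value is the median of duplicate plates.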

[2] = compound: O=c1[nH]cc(F)c(=O)[nH]1 [5-Fluorouracil] + CCNC(=O)c1noc(-c2cc(C(C)C)c(O)cc2O)c1-c1ccc(CN2CCOCC2)cc1 [Luminespib] (partner 0.01 µM)
How it was run: as §1

[3] = compound: O=c1[nH]cc(F)c(=O)[nH]1 [5-Fluorouracil] + CC(C)C[C@H](NC(=O)[C@H](Cc1ccccc1)NC(=O)c1cnccn1)B(O)O [Bortezomib] (partner 0.002 µM)
How it was run: as §1

[4] = compound: CN[C@@H]1C[C@H]2O[C@@](C)([C@@H]1OC)n1c3ccccc3c3c4c(c5c6ccccc6n2c5c31)C(=O)NC4 [Staurosporine] + Cc1cc(Nc2cc(N3CCN(C)CC3)nc(Sc3ccc(NC(=O)C4CC4)cc3)n2)n[nH]1 [Tozasertib] (partner 0.1 µM)
How it was run: as §1

UMC-11
relative viability ([1]; first compound 0.005 µM): 0.508 | relative viability ([1]; first compound 0.05 µM): 0.149 | relative viability ([1]; first compound 0.1581 µM): 0.114 | relative viability ([1]; first compound 0.5 µM): 0.0934 | relative viability ([2]; first compound 0.02 µM): 0.954 | relative viability ([2]; first compound 0.2 µM): 0.68 | relative viability ([2]; first compound 0.6325 µM): 0.516 | relative viability ([2]; first compound 2 µM): 0.396 | relative viability ([3]; first compound 0.02 µM): 0.674 | relative viability ([3]; first compound 0.2 µM): 0.542 | relative viability ([3]; first compound 0.6325 µM): 0.368 | relative viability ([3]; first compound 2 µM): 0.35 | relative viability ([4]; first compound 0.005 µM): 0.189 | relative viability ([4]; first compound 0.01581 µM): 0.161 | relative viability ([4]; first compound 0.05 µM): 0.145 | relative viability ([4]; first compound 0.1581 µM): 0.127 | relative viability ([4]; first compound 0.5 µM): 0.122
